Data on four compounds can be found in US20080081284A1, “OPTICAL INFORMATION RECORDING MEDIUM” (FUJIFILM Corporation, priority 2006, published 2008).

A short description of the data set: Evaluation of light fastness of dye film. As to conditions: residual dye ratio at absorption λmax 48 hours after Xe light irradiation; dye film on glass plate. The class given is physicochemical. Here is the method: Dye-containing coating liquids equal to those of Examples 1 to 3, and Comparative Examples 1 to 4 were prepared, and each coating liquid was applied to a 1.1-mm-thick glass plate by a spin coating method under conditions of 23° C. and 50% RH while changing the rotation rate within a range of 500 to 1,000 rpm. The glass plate with the dye film was stored for 24 hours under conditions of 23° C. and 50% RH, and then subjected to a light fastness test using a merry-go-round-type light fastness tester (Cell Tester Model III manufactured by Eagle Engineering, equipped with WG320 Filter manufactured by Schott). The absorption spectrum of the dye film was measured using UV-1600PC manufactured by SHIMADZU immediately before the light fastness test and 48 hours after the light fastness test, and the change of the absorbancy at the maximum absorption wavelength was evaluated.
Take `Cn1nc(C(C)(C)C)c(N=Nc2c(C#N)cnn2-c2cc(C(=O)O)cc(C(=O)O)c2)c1N` [Compound (A-1)]: the “Light fastness of dye film” value was “Good (evaluated as “Good” when the ratio was 70% or more and less than 85%)”. The same measure for `Cc1nn2nc(C(C)(C)C)c(/N=N/c3c(C#N)cnn3-c3cc(C(=O)O)cc(C(=O)O)c3)c2n1C` [Compound (A-7)]: “Excellent (Evaluated as “Excellent” when the residual dye ratio was 85% or more at the absorption λmax 48 hours after the irradiation with an Xe light)”. Regarding `CCCCC(CC)COC(=O)Nc1ccc(-c2nn3nc(C(C)(C)C)c(/N=N/c4c(C#N)cnn4-c4cc(C(=O)O)cc(C(=O)O)c4)c3[nH]2)cc1` (stereo not shown) [Compound (C)], the “Light fastness of dye film” value was “Fair (evaluated as “Fair” when the ratio was 60% or more and less than 70%)”.

For `Cc1n[nH]c2c(/N=N/c3c(C#N)c(C(C)(C)C)nn3C)c(C(C)(C)C)nn12` [Compound (D)], the “Light fastness of dye film” value was “Fair (evaluated as “Fair” when the ratio was 60% or more and less than 70%)”.
